From PubChem BioAssay AID330 (DTP/NCI, 2004)
“And” between values parts separate entries of the source, which are not always exact repeats. Identical values can stand only once. Inconclusive results and toxic doses are left out. How the source made its calls: active means survival T/C of 150% or more; inactive means T/C below 125% in these data.

System: P388 leukemia ip, CD2F1 mice, survival T/C
Test: NCI In Vivo Anticancer Drug Screen. Data for tumor model P388 Leukemia (intraperitoneal) in CD2F1 (CDF1) mice
Settings: endpoint: median survival time, higher = longer survival
How it was run: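 Mice carrying the transplanted tumor received test compound or vehicle. Survival was recorded in each group, and the value is the treated-group measurement divided by that of the vehicle-treated control group.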

[1] = dose: 50.0 mg/kg/injection, schedule: Q01DX009 (ip), vehicle: saline
[2] = dose: 100.0 mg/kg/injection, schedule: Q01DX009 (ip), vehicle: saline
[3] = dose: 200.0 mg/kg/injection, schedule: Q01DX009 (ip), vehicle: saline
[4] = dose: 50.0 mg/kg/injection, schedule: Q01DX009 (ip), vehicle: saline with Tween-80
[5] = dose: 100.0 mg/kg/injection, schedule: Q01DX009 (ip), vehicle: saline with Tween-80
[6] = dose: 50.0 mg/kg/injection, schedule: Q01DX005 (ip), vehicle: saline with Tween-80
[7] = dose: 60.0 mg/kg/injection, schedule: Q01DX005 (ip), vehicle: saline with Tween-80
[8] = dose: 120.0 mg/kg/injection, schedule: Q01DX005 (ip), vehicle: saline with Tween-80
[9] = dose: 240.0 mg/kg/injection, schedule: Q01DX005 (ip), vehicle: saline with Tween-80

Measured: T/C

CC[n+]1c(/C=C/c2ccc(N(C)C)cc2)ccc2ccccc21
inactive: dose: 0.19 mg/kg/injection, schedule: Q01DX009 (ip), vehicle: saline 100 % of control | dose: 0.39 mg/kg/injection, schedule: Q01DX009 (ip), vehicle: saline 86 % of control | dose: 0.78 mg/kg/injection, schedule: Q01DX009 (ip), vehicle: saline 114 % of control | dose: 1.56 mg/kg/injection, schedule: Q01DX009 (ip), vehicle: saline 96 % of control

CNc1c([N+](=O)[O-])cc2[nH]cnc2c1[N+](=O)[O-]
inactive: dose: 25.0 mg/kg/injection, schedule: Q04DX003 (ip), vehicle: saline with Tween-80 97 % of control | dose: 50.0 mg/kg/injection, schedule: Q04DX003 (ip), vehicle: saline with Tween-80 95 % of control

O=C(NC(Cc1ccc(Br)cc1)C(=O)O)c1cccc(Br)c1 (configuration not stated)
inactive: dose: 50.0 mg/kg/injection, schedule: Q01DX005 (ip), vehicle: Klucel (hydroxypropylcellulose) (HPC) 91 % of control | dose: 100.0 mg/kg/injection, schedule: Q01DX005 (ip), vehicle: Klucel (hydroxypropylcellulose) (HPC) 102 % of control | dose: 200.0 mg/kg/injection, schedule: Q01DX005 (ip), vehicle: Klucel (hydroxypropylcellulose) (HPC) 104 % of control

CC1(CCl)CC(=O)N1C(N)=O (configuration not stated)
inactive: [1] 96 % of control | [2] 104 % of control | [3] 105 % of control

F[B-](F)(F)F
inactive: dose: 12.5 mg/kg/injection, schedule: Q01DX009 (ip), vehicle: gum acacia 111 % of control | dose: 25.0 mg/kg/injection, schedule: Q01DX009 (ip), vehicle: gum acacia 118 % of control | dose: 50.0 mg/kg/injection, schedule: Q01DX009 (ip), vehicle: gum acacia 109 % of control and 114 % of control | dose: 100.0 mg/kg/injection, schedule: Q01DX009 (ip), vehicle: gum acacia 123 % of control

Oc1ccccc1C(Nc1nc2ccccc2s1)c1ccc2cccnc2c1O (configuration not stated)
inactive: [2] 90 % of control | dose: 100.0 mg/kg/injection, schedule: Q04DX003 (ip), vehicle: saline 95 % of control | [3] 100 % of control | dose: 200.0 mg/kg/injection, schedule: Q04DX003 (ip), vehicle: saline 91 % of control | dose: 400.0 mg/kg/injection, schedule: Q01DX009 (ip), vehicle: saline 90 % of control | dose: 400.0 mg/kg/injection, schedule: Q04DX003 (ip), vehicle: saline 91 % of control

COc1ccc(C2(C)C(C#N)(C#N)C2(C#N)C#N)cc1
inactive: dose: 18.75 mg/kg/injection, schedule: Q01DX009 (ip), vehicle: saline 103 % of control | dose: 37.5 mg/kg/injection, schedule: Q01DX009 (ip), vehicle: saline 100 % of control | dose: 75.0 mg/kg/injection, schedule: Q01DX009 (ip), vehicle: saline 116 % of control | dose: 150.0 mg/kg/injection, schedule: Q01DX009 (ip), vehicle: saline 111 % of control

COC(=O)C1=NNC(C(=O)OC)=NN1
inactive: dose: 25.0 mg/kg/injection, schedule: Q01DX009 (ip), vehicle: other 87 % of control | dose: 50.0 mg/kg/injection, schedule: Q01DX009 (ip), vehicle: other 106 % of control | dose: 100.0 mg/kg/injection, schedule: Q01DX009 (ip), vehicle: other 98 % of control | dose: 200.0 mg/kg/injection, schedule: Q01DX009 (ip), vehicle: other 106 % of control | dose: 400.0 mg/kg/injection, schedule: Q01DX009 (ip), vehicle: other 103 % of control

CCCCC(NC(C)=O)C(=O)O (configuration not stated)
inactive: [4] 99 % of control and 95 % of control | [5] 98 % of control | dose: 200.0 mg/kg/injection, schedule: Q01DX009 (ip), vehicle: saline with Tween-80 100 % of control and 96 % of control | dose: 400.0 mg/kg/injection, schedule: Q01DX009 (ip), vehicle: saline with Tween-80 100 % of control

CCCCN(CCCC)CCCNc1c2c(nc3ccc(Cl)cc13)CCCC2
inactive: dose: 12.5 mg/kg/injection, schedule: Q01DX005 (ip), vehicle: saline with Tween-80 102 % of control | dose: 25.0 mg/kg/injection, schedule: Q01DX005 (ip), vehicle: saline with Tween-80 104 % of control | [6] 99 % of control and 101 % of control

O=C([CH-]C(=O)C(F)(F)F)C(F)(F)F.O=C([CH-]C(=O)C(F)(F)F)C(F)(F)F.O=C([CH-]C(=O)C(F)(F)F)C(F)(F)F.[Ru+3]
inactive: dose: 7.5 mg/kg/injection, schedule: Q01DX005 (ip), vehicle: Klucel (hydroxypropylcellulose) (HPC) 97 % of control | dose: 15.0 mg/kg/injection, schedule: Q01DX005 (ip), vehicle: Klucel (hydroxypropylcellulose) (HPC) 87 % of control

CCOC(=O)C1CCCCC12Nc1cccc3cccc(c13)N2 (configuration not stated)
inactive: [6] 95 % of control | dose: 100.0 mg/kg/injection, schedule: Q01DX005 (ip), vehicle: saline with Tween-80 105 % of control | dose: 200.0 mg/kg/injection, schedule: Q01DX005 (ip), vehicle: saline with Tween-80 113 % of control

CC(=O)O[C@H]1C(=O)[C@]2(C)[C@@H](OC(C)=O)CC3OC[C@@]3(OC(C)=O)[C@H]2[C@H](OC(=O)c2ccccc2)[C@]2(O)C[C@H](OC(=O)[C@H](O)[C@@H](NC(=O)c3ccccc3)c3ccccc3)C(C)=C1C2(C)C (some centres not stated)
inactive: dose: 2.5 mg/kg/injection, schedule: Q01DX005 (ip), vehicle: DMSO 100 % of control | dose: 5.0 mg/kg/injection, schedule: Q01DX005 (ip), vehicle: DMSO 111 % of control

Nn1cnc2nc[nH]c2c1=O
inactive: dose: 100.0 mg/kg/injection, schedule: Q01DX001 (ip), vehicle: saline with Tween-80 101 % of control | dose: 200.0 mg/kg/injection, schedule: Q01DX001 (ip), vehicle: saline with Tween-80 104 % of control | dose: 400.0 mg/kg/injection, schedule: Q01DX001 (ip), vehicle: saline with Tween-80 95 % of control

Cc1c(Cl)cccc1-n1c(=O)c2[nH]c3ccccc3sc=2c1=O
inactive: [7] 100 % of control | [8] 92 % of control | [9] 97 % of control

CN(C)CCC1(C)OCCC2=C1Cc1ccccc12 (configuration not stated)
inactive: [4] 91 % of control | [5] 99 % of control

CC(C)(C)S.[Ge]
inactive: dose: 7.5 mg/kg/injection, schedule: Q01DX009 (ip), vehicle: saline with Tween-80 106 % of control | dose: 15.0 mg/kg/injection, schedule: Q01DX009 (ip), vehicle: saline with Tween-80 107 % of control | dose: 30.0 mg/kg/injection, schedule: Q01DX009 (ip), vehicle: saline with Tween-80 103 % of control

COC(=O)C1(CC(=O)c2ccncc2)NC(=S)NC(=O)C1C#N (configuration not stated)
inactive: dose: 60.0 mg/kg/injection, schedule: Q01DX005 (ip), vehicle: saline 99 % of control | dose: 120.0 mg/kg/injection, schedule: Q01DX005 (ip), vehicle: saline 101 % of control | dose: 240.0 mg/kg/injection, schedule: Q01DX005 (ip), vehicle: saline 94 % of control

CN1CCC(=C2c3ccccc3Oc3ncccc32)CC1
inactive: dose: 12.5 mg/kg/injection, schedule: Q01DX009 (ip), vehicle: saline 102 % of control | dose: 25.0 mg/kg/injection, schedule: Q01DX009 (ip), vehicle: saline 111 % of control | [4] 102 % of control | [1] 99 % of control

O=C1NC(=O)C2(CC3CCCCC3CC2c2ccccc2)N1 (configuration not stated)
inactive: dose: 100.0 mg/kg/injection, schedule: Q04DX003 (ip), vehicle: saline with Tween-80 89 % of control | dose: 200.0 mg/kg/injection, schedule: Q04DX003 (ip), vehicle: saline with Tween-80 91 % of control | dose: 400.0 mg/kg/injection, schedule: Q04DX003 (ip), vehicle: saline with Tween-80 100 % of control

OC[C@@H](O)C[C@H](CO)Cc1ccc2c(c1)OCO2
inactive: dose: 50.0 mg/kg/injection, schedule: Q04DX002 (ip), vehicle: saline with Tween-80 96 % of control | dose: 100.0 mg/kg/injection, schedule: Q04DX002 (ip), vehicle: saline with Tween-80 87 % of control | dose: 200.0 mg/kg/injection, schedule: Q04DX002 (ip), vehicle: saline with Tween-80 99 % of control

CC1=CC(S)NC(=S)N1 (configuration not stated)
inactive: [7] 101 % of control | [8] 105 % of control | [9] 102 % of control
